Reference: US12259539B2, “Optical microscope” (SMI DRUG DISCOVERY LIMITED, priority 2019, dated 2025)

Biological target: T1, P2X1 receptor (Homo sapiens, UniProt P51575)
T1 construct: made in house
T1 sequence (P51575 1-399): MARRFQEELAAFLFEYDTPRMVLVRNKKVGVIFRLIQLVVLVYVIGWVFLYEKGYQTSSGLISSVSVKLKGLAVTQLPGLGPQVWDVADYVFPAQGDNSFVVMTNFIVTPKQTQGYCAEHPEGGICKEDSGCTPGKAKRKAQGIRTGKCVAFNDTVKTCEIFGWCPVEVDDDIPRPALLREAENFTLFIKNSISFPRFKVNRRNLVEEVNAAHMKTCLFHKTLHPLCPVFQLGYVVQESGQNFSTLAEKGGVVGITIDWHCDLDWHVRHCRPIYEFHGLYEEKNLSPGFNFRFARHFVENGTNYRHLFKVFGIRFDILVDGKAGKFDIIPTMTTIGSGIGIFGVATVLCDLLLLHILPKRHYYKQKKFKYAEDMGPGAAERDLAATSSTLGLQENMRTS
Test: Single molecule stochastic binding of ATP* to purified P2X1 reconstituted in lipid bilayers
Settings: corrected for photophysical blinking and photochemical bleach; compared with bulk measurements
From the text: Plasmids: A FLAG-tagged human P2X1 subunit construct was generated by fusion PCR, and cloned together with an IRES-IFP1.4 fusion PCR product as a three-point ligation into the Mlul/Spel digested pLV-T backbone (see Shu, X.; Royant, A.; Lin, M. Z.; Aguilera, T. A.; Lev-Ram, V.; Steinbach, P. A.; Tsien, R. Y. Science 2009, 324, 804; and Marquis, J.; Kampfer, S. S.; Angehrn, L.; Schumperli, D. Gene therapy 2009, 16, 70.)
Protein Purification: HEK 293T cells stably expressing the FLAG-P2X1 receptor were grown as monolayers in T300 plates. At a density of 80%, cells were washed once with phosphate buffered saline (PBS (mM); 0.1 NaCl, 2.0 Na2HPO4, 0.54 KCl, 0.4 KH2PO4, pH 7.4), mechanically detached into PBS, collected by centrifugation at 500 g for 5 min, snap frozen in liquid N2 and stored at −70° C. until needed. After defrosting, cells were diluted with 2 mL Tris-EDTA (50 mM Tris-HCl, 0.5 mM EDTA, pH 7.5) containing Halt Protease Inhibitor (Pierce, Thermo Scientific, IL, USA) and homogenized with a 5 mL cell-douncer, followed by trituration through 21-gauge and 27-gauge needles. […]

“2′/3′-O-(2-Aminoethyl-carbamoyl)-Adenosine-5′-triphosphate, labelled with ATTO-700 [ATP*]” was tested, and the “binding coefficients from single receptor binding data” value was “statistically identical to overall bulk measurements”.
